Data reported in US10676477B2, “Factor XIa macrocycle inhibitors bearing a non-aromatic P2' group” (BRISTOL-MYERS SQUIBB COMPANY, priority 2015, dated 2020).
Read-outs that look alike come from different tables or passages of the source. Values belong to the molecule of their own block, whether it stands above or below them.

Experiments:
[1] = rcm bond, DCE, 50.0 °C
human Factor XIa = target: T1, human Factor XIa (Homo sapiens, UniProt P03951); test: Factor XIa enzyme inhibition assay (chromogenic substrate S-2366), Ki; assay type: biochemical; conditions: purified human Factor XIa, substrate S-2366, pH 7.4
T1 construct: purchased Haematologic Technologies
Experimental: (§1) The effectiveness of compounds of the present invention as inhibitors of the coagulation Factors XIa, VIIa, IXa, Xa, XIIa, plasma kallikrein chymotrypsin, trypsin, or thrombin, can be determined using a relevant purified serine protease, respectively, and an appropriate synthetic substrate. The rate of hydrolysis of the chromogenic or fluorogenic substrate by the relevant serine protease was measured both in the absence and presence of compounds of the present invention. […] A decrease in the rate of absorbance or fluorescence change in the presence of inhibitor is indicative of enzyme inhibition. Such methods are known to one skilled in the art. The results of this assay are expressed as the inhibitory constant, Ki.
Factor XIa determinations were made in 50 mM HEPES buffer at pH 7.4 containing 145 mM NaCl, 5 mM KCl, and 0.1% PEG 8000 (polyethylene glycol; JT Baker or Fisher Scientific). Determinations were made using purified human Factor XIa at a final concentration of 25-200 pM (Haematologic Technologies) and the synthetic substrate S-2366 (pyroGlu-Pro-Arg-pNA; CHROMOGENIX® or AnaSpec) at a concentration of 0.0002-0.001 M.
(§2) The Michaelis constant, Km, for substrate hydrolysis by each protease, was determined at 25° C. or 37° C. in the absence of inhibitor. Values of Ki were determined by allowing the protease to react with the substrate in the presence of the inhibitor. Reactions were allowed to go for periods of 20-180 minutes (depending on the protease) and the velocities (rate of absorbance or fluorescence change versus time) were measured. The following relationships were used to calculate Ki values: (Vmax*S)/(Km+S) (vo−vs)/vs=I/(Ki*(1+S/Km)) for a competitive inhibitor with one binding site; or vs/vo=A+((B−A)/(1+(IC50/(I)^n)); and Ki=IC50/(1+S/Km) for a competitive inhibitor where: […]

human plasma kallikrein = target: T2, human plasma kallikrein (Homo sapiens, UniProt P03952); test: Plasma kallikrein enzyme inhibition assay (chromogenic substrate S-2302), Ki; assay type: biochemical; conditions: purified human plasma kallikrein, substrate S-2302, pH 7.5
T2 construct: purchased Enzyme Research Laboratories
Experimental: as §1
Plasma kallikrein determinations were made in 0.1 M sodium phosphate buffer at a pH of 7.5 containing 0.1-0.2 M sodium chloride and 0.5% PEG 8000. Determinations were made using purified human plasma kallikrein (Enzyme Research Laboratories) at a final assay concentration of 200 pM and the synthetic substrate S-2302 (H-(D)-Pro-Phe-Arg-pNA; CHROMOGENIX®) at a concentration of 0.00008-0.0004 M.
as §2

T2 sequence (P03952 391-638 limits assumed): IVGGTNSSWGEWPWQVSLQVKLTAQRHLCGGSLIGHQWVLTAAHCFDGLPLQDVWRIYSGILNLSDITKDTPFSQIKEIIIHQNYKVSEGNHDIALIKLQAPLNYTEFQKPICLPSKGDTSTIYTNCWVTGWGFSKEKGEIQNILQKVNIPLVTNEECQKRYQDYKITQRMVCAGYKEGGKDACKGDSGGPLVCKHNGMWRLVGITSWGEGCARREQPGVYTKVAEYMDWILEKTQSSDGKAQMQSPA
T2 sequence (P03952 20-390 partner limits assumed): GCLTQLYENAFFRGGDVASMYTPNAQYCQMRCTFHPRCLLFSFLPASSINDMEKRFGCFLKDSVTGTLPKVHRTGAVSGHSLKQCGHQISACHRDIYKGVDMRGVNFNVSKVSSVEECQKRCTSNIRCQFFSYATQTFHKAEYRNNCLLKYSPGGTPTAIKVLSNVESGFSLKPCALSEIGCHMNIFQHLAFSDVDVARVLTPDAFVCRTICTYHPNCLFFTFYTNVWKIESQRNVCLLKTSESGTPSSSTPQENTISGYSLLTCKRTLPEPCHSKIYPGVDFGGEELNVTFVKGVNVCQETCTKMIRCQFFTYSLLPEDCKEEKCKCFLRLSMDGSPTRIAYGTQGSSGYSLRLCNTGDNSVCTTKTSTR
T1 sequence (P03951 388-625 limits assumed): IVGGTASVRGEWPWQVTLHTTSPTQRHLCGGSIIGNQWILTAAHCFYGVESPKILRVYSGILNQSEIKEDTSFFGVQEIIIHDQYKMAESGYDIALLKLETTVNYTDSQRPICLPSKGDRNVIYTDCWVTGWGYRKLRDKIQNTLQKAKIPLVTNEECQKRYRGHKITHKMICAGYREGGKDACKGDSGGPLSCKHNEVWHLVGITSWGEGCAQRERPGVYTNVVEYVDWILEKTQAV
T1 sequence (P03951 19-387 partner limits assumed): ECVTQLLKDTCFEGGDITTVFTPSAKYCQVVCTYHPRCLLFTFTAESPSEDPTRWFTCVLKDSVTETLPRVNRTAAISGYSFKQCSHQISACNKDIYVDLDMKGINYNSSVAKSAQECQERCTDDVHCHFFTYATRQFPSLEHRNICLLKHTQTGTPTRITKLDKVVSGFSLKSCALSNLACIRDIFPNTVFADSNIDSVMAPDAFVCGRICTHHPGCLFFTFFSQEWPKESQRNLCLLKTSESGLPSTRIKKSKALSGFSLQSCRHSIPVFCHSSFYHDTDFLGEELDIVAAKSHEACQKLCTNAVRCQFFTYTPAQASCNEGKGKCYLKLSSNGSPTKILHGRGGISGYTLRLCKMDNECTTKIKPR

SMILES: CC(C)(C)OC(=O)N1CCN2c3cccc(c3)[C@@H](NC(=O)OCc3ccccc3)C/C=C/CCNC(=O)[C@@H]2C1
- ring closure, isolated yield ([1]; from C=CCCNC(=O)[C@@H]1CN(C(=O)OC(C)(C)C)CCN1c1cccc([C@H](CC=C)NC(=O)OCc2ccccc2)c1, 13-membered ring, Grubbs II (40 mol%), 7.55 mM, 5.0 h): 93%

SMILES: CC(C)(C)OC(=O)N1CCN2c3cccc(c3)[C@@H](NC(=O)OCc3ccccc3)C/C=C/CCNC(=O)[C@H]2C1
- ring closure, isolated yield ([1]; from C=CCCNC(=O)[C@H]1CN(C(=O)OC(C)(C)C)CCN1c1cccc([C@H](CC=C)NC(=O)OCc2ccccc2)c1, 13-membered ring, Grubbs II (20 mol%), 9.78 mM, 5.0 h): 81%

SMILES: CC(C)(C)OC(=O)N1CCN2c3cccc(c3)[C@@H](NC(=O)OCc3ccccc3)C/C=C/CNC(=O)[C@H]2C1
- ring closure, isolated yield ([1]; from C=CCNC(=O)[C@H]1CN(C(=O)OC(C)(C)C)CCN1c1cccc([C@H](CC=C)NC(=O)OCc2ccccc2)c1, 12-membered ring, Grubbs II (20 mol%), 9.1 mM, 5.0 h): 38.6%

SMILES: CC(C)(C)OC(=O)NC[C@H]1Nc2cccc(c2)[C@@H](NC(=O)OCc2ccccc2)C/C=C/CCNC1=O
- ring closure, isolated yield ([1]; from C=CCCNC(=O)[C@@H](CNC(=O)OC(C)(C)C)Nc1cccc([C@H](CC=C)NC(=O)OCc2ccccc2)c1, 13-membered ring, Grubbs II (20 mol%)/pTsOH.H2O (1 eq), 10.2 mM, 5.0 h): 37%

SMILES: O=C1CN2c3cccc(c3)[C@@H](NC(=O)OCc3ccccc3)CC=CCCNC(=O)C2CN1 (stereo partly shown)
- ring closure, isolated yield ([1]; from C=CCCNC(=O)C1CNC(=O)CN1c1cccc([C@H](CC=C)NC(=O)OCc2ccccc2)c1, 13-membered ring, Grubbs II (20 mol%), 9.0 mM, 2.5 h): 89%

SMILES: CC(C)(C)OC(=O)N1CC(=O)N2c3cccc(c3)[C@@H](NC(=O)OCc3ccccc3)CC=CCCNC(=O)[C@H]2C1 (mixture of isomers)
- ring closure, isolated yield ([1]; from C=CCCNC(=O)[C@H]1CN(C(=O)OC(C)(C)C)CC(=O)N1c1cccc([C@H](CC=C)NC(=O)OCc2ccccc2)c1, 13-membered ring, Grubbs II (30 mol%), 9.54 mM, 2.0 h): 76%

- Ki (human Factor XIa): 5.17 µM
- Ki (human plasma kallikrein): 11.1 µM
SMILES: O=C1NCCCCC[C@H](n2cnc(-c3c(-n4cc(Cl)nn4)ccc(Cl)c3F)cc2=O)c2cccc(c2)N2C(=O)CC[C@@H]12 [Example 35, (6S,14S)-14-{4-[3-chloro-6-(4-chloro-1H-1,2,3-triazol-1-yl)-2-fluorophenyl]-6-oxo-1,6-dihydropyrimidin-1-yl}-2,8-diazatricyclo[13.3.1.0^2,6]nonadeca-1(19),15,17-triene-3,7-dione]

- Ki (human Factor XIa): 0.008 µM
- Ki (human plasma kallikrein): 0.133 µM
SMILES: O=C1NCCCCC[C@H](n2cnc(-c3cc(Cl)ccc3-n3cc(Cl)nn3)cc2=O)c2cccc(c2)N2CCC[C@H]12 [Example 36, (6R,14S)-14-{4-[5-chloro-2-(4-chloro-1H-1,2,3-triazol-1-yl)phenyl]-6-oxo-1,6-dihydropyrimidin-1-yl}-2,8-diazatricyclo[13.3.1.0^2,6]nonadeca-1(19),15,17-trien-7-one]
